Reference: patent US20100239498A1, “METHOD OF MAINTAINING THE FUNCTION OF LIVER TISSUE CELLS OVER LONG TIME” (priority 2006, published 2010)

Tested on: CYP1A
Experiment: CYP1A induction in transplanted murine subcutaneous hepatic tissue, tissue staining (Example 3)
Format: in vivo, mouse
Settings: 120 days after transplantation; intraperitoneal once a day for three days; tissue staining 24 hours after final administration
Description: The murine hepatic tissue cell sheet as obtained in Example 1 was transplanted by application into a murine subcutaneous site having undergone the induction of angiogenesis in accordance with the method of transplanting a hepatic cell sheet as shown in Example 1. One hundred twenty days after transplantation, 3-methylcholantrene (Sigma-Aldrich, St. Louis, Mo.) was intraperitoneally administered once a day and continuously for three days, and 24 hours after the final administration, the mouse was killed and the hepatic tissue prepared was subjected to tissue staining (Example 3). […] Further, CYP1A means CYP1A activity.

Question: How did the “induction of CYP1A (CYP1A activity) in prepared murine subcutaneous hepatic tissue” value turn out when `Cc1ccc2cc3c(ccc4ccccc43)c3c2c1CC3` [3-methylcholantrene] was run?
Answer: Its value is “strongly induced”.
